Data set [1] relates to rabbit platelet (collagen-induced aggregation). The data set is described as follows: Platelet aggregation inhibitory effect, collagen-induced aggregation in rabbit platelet. The data set is classed as cell-based. As to conditions: Oryctolagus cuniculus, read-out: Inhibition effect on collagen-induced aggregation in rabbit platelet; for inhibition at 100 µM: concentration of the test compound solution 10^-4 mole; for inhibition at 10 µM: concentration of the test compound solution 10^-5 mole; for inhibition at 1 µM: concentration of the test compound solution 10^-6 mole. From the text:
(§1) The blood sample used for the test is a 1/9 (by volume) mixture of sodium citrate and whole blood collected from rabbit. Said sample is subjected to 10-minute centrifugal separation at 1,000 r.p.m. to obtain a platelet rich plasma (PRP). The thus obtained PRP is separated, and the remaining blood sample is further subjected to 15-minute centrifugal separation at 3,000 r.p.m. to obtain a platelet poor plasma (PPP).
(§2) The number of platelets in the PRP is counted by the Brecher-Clonkite Method, and the PRP is diluted with the PPP to prepare a PRP sample with platelet concentration of 300,000/mm^3 for the adenosine diphosphate (ADP)-induced aggregation test. There is also prepared a PRP sample with platelet concentration of 450,000/mm^3 for the collagen-induced aggregation test.
(§3) 0.6 Ml of said PRP sample is added into 0.01 ml of a solution of a test compound of a predetermined concentration and the mixture is placed in a 37° C. thermostat for one minute. Then 0.07 ml of an ADP or collagen solution is added to the mixture. Transmittance of this mixture is determined and the change of transmittance is recorded by using the aggregometer at stirrer speed of 1,100 r.p.m. […] ADP is adjusted to a concentration of 7.5×10^-5 M, and the collagen solution is prepared by triturating 100 mg of collagen with 5 ml of said buffer and the supernatant is used as collagen inducer. Adenosine and acetylsalicylic acid are used as controls for the ADP-induced aggregation test and the collagen-induced aggregation test, respectively. The platelet aggregation inhibitory effect is measured in terms of percent inhibition with respect to the aggregation rate of the controls. The aggregation rate is calculated from the following formula: [formula] wherein a: transmittance of PRP
(§4) b: transmittance of PRP containing a test compound and an aggregation inducer
(§5) The compounds tested are as follows.

Data set [2] deals with rabbit platelet (ADP-induced aggregation). The data set is described as follows: Platelet aggregation inhibitory effect, ADP-induced aggregation in rabbit platelet. Format: cell-based. As to conditions: Oryctolagus cuniculus; for inhibition at 100 µM: concentration of the test compound solution 10^-4 mole; for inhibition at 100 µM / inhibition at 10 µM: read-out: Inhibition effect on ADP-induced aggregation in rabbit platelet; for inhibition at 10 µM: concentration of the test compound solution 10^-5 mole; for inhibition at 1 µM: concentration of the test compound solution 10^-6 mole.
Excerpt: as §1, §2, §3, §4, §5

The test system of data set [3] is Gold blatt type renoprival hypertension rats (RHR). Nature of the data set: Hypo-tensive effect, Gold blatt type renoprival hypertension rats (RHR), tail-cuff method. The conditions noted are these: 30 mg/kg oral, mean ± standard deviation. The data set is classed as in vivo, rat. On the procedure:
Hypo-tensive effect of the compounds was measured by determining the maximum blood pressure of the test animals according to a procedure of Tail-cuff method.
The following types of test animals were used:
(1) Gold blatt type renoprival hypertension rats (RHR)
Wistar strain male rats having 160-180 g of body weight were anesthetized with ether and the left-side renal artery was plugged with a silver clip having 0.2 mm inside diameter, while the right-side renal artery was kept as it was without operation. Four (4) weeks after the operation, rats having the maximum blood pressure over 150 mmHg were selected and used as test animals after having been denied food overnight.
Each of compounds to be tested was administered orally and the blood pressure of the rats was measured before the administration and 1, 2, 4, 6 and 8 hours after the administration. The blood pressure was measured by using Recorder (Rectihoriz type 8S, San-ei Instrument) and Electrosthygmomanometer PE-300 (Macro Bio-systems, Houston, Tex.).

A further data set in a line: Acute toxicity test. The conditions noted are these: mouse, in vivo; male mice, oral administration. On the procedure:
The test compounds were administered orally to the mice and LD50 (mg/kg) of the compounds was determined.

Usually inhibition stands for the change of the read-out against control, counted positive when it falls. The term LD50 denotes the dose expected to kill half of the subjects tested. Higher therefore signals lower toxicity.

Turning to `O=c1ccc2cc(OCCCc3nnnn3C3CCCCCCC3)ccc2[nH]1` [Compound 6, 6-[3-(1-Cyclooctyltetrazol-5-yl)propoxy]carbostyril], the inhibition at 100 µM in data set [1] and in data set [2] was 100% throughout. For the same compound, the inhibition at 10 µM was found to be 100% in data set [1] and 75.5% in data set [2]. In addition, the figures for the inhibition at 1 µM in data set [1] and in data set [2] were 27.4% and 30.5%, respectively. For the same compound, the “Maximum blood pressure, difference after the administration” value (from here on “Maximum blood pressure, difference”) in data set [3] (1 hour) is -8.5 ± 4.3 mmHg; in data set [3] (2 hours), -10.7 ± 7.6 mmHg; in data set [3] (4 hours), -40.8 ± 9.9 mmHg; in data set [3] (6 hours) it was -35.4 ± 9.5 mmHg; in data set [3] (8 hours) it was -28.4 ± 7.7 mmHg. Also, the LD50 in “Acute toxicity test” is above 1000 mg/kg.
Take `O=c1ccc2cc(OCCCc3nnnn3CC3CCCCC3)ccc2[nH]1` [Compound 5, 6-[3-(1-Cyclohexylmethyltetrazol-5-yl)propoxy]carbostyril]: the inhibition at 100 µM in data set [1] and in data set [2] was 100% in each case. Also, the inhibition at 10 µM in data set [1] came to 100%; in data set [2], 64.1%. Moreover, the inhibition at 1 µM worked out at 24.7% in data set [1] and 34.2% in data set [2]. Besides, the “Maximum blood pressure, difference” value in data set [3] (1 hour) was -30.2 ± 8.2 mmHg; in data set [3] (2 hours), -21.2 ± 5.7 mmHg; in data set [3] (4 hours), -21.7 ± 7.5 mmHg; in data set [3] (6 hours), -24.7 ± 10.4 mmHg. The same compound gave an LD50 in “Acute toxicity test” above 1000 mg/kg.
Regarding `O=c1ccc2cc(OCCCc3nnnn3C3CCCCC3)ccc2[nH]1` [Compound 1, 6-[3-(1-Cyclohexyltetrazol-5-yl)propoxy]carbostyril], the inhibition at 100 µM in data set [1] and in data set [2] was 100% each time. Moreover, the inhibition at 10 µM in data set [1] was 100%; in data set [2], 63.4%. In addition, the inhibition at 1 µM was 25.9% in data set [1] and 32.7% in data set [2]. The “Maximum blood pressure, difference” value in data set [3] (1 hour) was -3.3 ± 5.2 mmHg; in data set [3] (2 hours), -9.9 ± 6.7 mmHg; in data set [3] (4 hours) it was -36.7 ± 9.7 mmHg; in data set [3] (6 hours) it was -33.4 ± 8.6 mmHg; in data set [3] (8 hours), -31.3 ± 8.8 mmHg. This compound also displayed a 50% lethal dose (LD50) in the data set “Acute toxicity test” above 1000 mg/kg.
As to `O=c1ccc2cc(OCCCCc3nnnn3C3CCCCC3)ccc2[nH]1` [Compound 7, 6-[4-(1-Cyclohexyltetrazol-5-yl)butoxy]carbostyril], the inhibition at 100 µM in data set [1] and in data set [2] was 100% in each case. The inhibition at 10 µM turned out to be 100% in data set [1] and 59.9% in data set [2]. For the same compound, the inhibition at 1 µM was 26.8% in data set [1] and 28.7% in data set [2]. The “Maximum blood pressure, difference” value is -9.5 ± 10.4 mmHg in data set [3] (1 hour); -12.6 ± 8.9 mmHg in data set [3] (2 hours); -34.9 ± 19.8 mmHg in data set [3] (4 hours); -30.4 ± 8.6 mmHg in data set [3] (6 hours); -19.7 ± 8.4 mmHg in data set [3] (8 hours). In the data set “Acute toxicity test”, this compound yielded an LD50 above 1000 mg/kg.

(Values after patent publication US4277479A, “Tetrazolylalkoxycarbostyril derivatives and pharmaceutical compositions containing them” (Otsuka Pharmaceutical Co., Ltd., priority 1978, dated 1981).)
